The nature of data set [1]: stability of optical brightener in the composition. Type of data set: physicochemical. The following applies: in composition of example 1. An excerpt:
FWA-184, also known as OB-184 or 2,5′-Bis[2-(5-tert-buty 1-2 benzoxazoly)thiophene is an optical brightener known for polymers, paints and detergents. It's suitable for use in polymers which come into contact with keratinous tissue and skin. Furthermore, it is stable in the present composition. […] It is important that the film-forming polymer is transparent to both visible ranges as well as the wavelengths which are absorbed by the fluorescent whitening agent.

Data set [2] can be described thus: tolerance of fluorescent whitening agent upon nails. Type of data set: in vivo. The conditions noted are these: applied upon nails. An excerpt:
In a preferred embodiment, the composition according to the invention includes 2,5-bis(5-tert-butyl-benzoxazol-2-yl)thiophene as fluorescent whitening agent. 2,5-bis(5-tert-butyl-benzoxazol-2-yl)thiophene is known as FWA-184 and has CAS No: [7128-64-5].

Molecules are shown by their SMILES.

In the case of `CC(C)(C)c1ccc2oc(-c3ccc(-c4nc5cc(C(C)(C)C)ccc5o4)s3)nc2c1` [FWA-184, 2,5-bis(5-tert-butyl-benzoxazol-2-yl)thiophene], in data set [1], the “stability in the present composition” value was “stable”. Further, the tolerance upon nails result in data set [2] is recorded as “well tolerated”.
